Patent publication US8906933B2, “Dihydropyrimidin-2(1H)-one compounds as neurokinin-3 receptor antagonists” (N30 Pharmaceuticals, Inc., priority 2010, dated 2014)

Biological target: human NK3 receptor (Homo sapiens (Human), UniProt P29371)
Assay: Human NK3 receptor binding assay at 1 uM
Conditions: 1 μM test compound; [3H]SR142801, CHO cell membranes; read-out: percent inhibition at 1 μM
Method: Antagonist activity was evaluated at a concentration of 1 μM for a representative subset of test compounds, and the results were expressed as the percent inhibition at that concentration.
Each test compound was evaluated at a single concentration of 1 μM. […] The results are expressed as a percent of control specific binding ((measured specific binding/control specific binding)×100) obtained in the presence of the test compounds.

Sequence of human NK3 receptor (P29371 whole entry): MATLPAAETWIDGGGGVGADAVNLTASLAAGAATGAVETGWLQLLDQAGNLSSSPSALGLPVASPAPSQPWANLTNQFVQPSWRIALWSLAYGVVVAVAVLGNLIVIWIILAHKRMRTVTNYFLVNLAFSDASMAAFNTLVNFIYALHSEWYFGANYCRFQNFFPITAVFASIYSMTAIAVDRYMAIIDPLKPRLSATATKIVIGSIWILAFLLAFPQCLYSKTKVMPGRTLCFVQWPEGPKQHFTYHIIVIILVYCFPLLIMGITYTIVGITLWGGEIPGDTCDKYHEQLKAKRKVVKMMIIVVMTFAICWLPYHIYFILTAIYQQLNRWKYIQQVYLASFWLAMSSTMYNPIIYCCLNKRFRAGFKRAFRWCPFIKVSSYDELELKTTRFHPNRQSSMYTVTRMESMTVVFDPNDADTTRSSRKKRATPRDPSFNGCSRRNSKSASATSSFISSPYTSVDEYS

| Structure (SMILES) | inhibition at 1 µM [%] |
| --- | --- |
| N#Cc1cccc(C2NC(=O)NC(c3ccccc3)=C2c2ccccc2)c1O (stereo not drawn) [2-hydroxy-3-(2-oxo-5,6-diphenyl-1,2,3,4-tetrahydropyrimidin-4-yl)benzonitrile] | > 50 |
| CCOc1cc(C2NC(=O)NC(c3ccccc3)=C2c2ccccc2)cc(Br)c1O (stereo not drawn) [4-(3-bromo-5-ethoxy-4-hydroxyphenyl)-5,6-diphenyl-3,4-dihydropyrimidin-2(1H)-one] | > 50 |
| CCOc1cc(C2NC(=O)NC(c3ccccc3)=C2c2cccc(CC)c2)cc([N+](=O)[O-])c1O (stereo not drawn) [4-(3-ethoxy-4-hydroxy-5-nitrophenyl)-5-(3-ethylphenyl)-6-phenyl-3,4-dihydropyrimidin-2(1H)-one] | > 50 |
| CCOc1cc(C2NC(=O)NC(c3ccccc3)=C2c2cccc(F)c2)cc([N+](=O)[O-])c1O (stereo not drawn) [4-(3-ethoxy-4-hydroxy-5-nitrophenyl)-5-(3-fluorophenyl)-6-phenyl-3,4-dihydropyrimidin-2(1H)-one] | > 50 |
| CCOc1cc(C2NC(=O)NC(c3ccc(C(F)(F)F)cc3)=C2c2ccccc2)cc([N+](=O)[O-])c1O (stereo not drawn) [4-(3-ethoxy-4-hydroxy-5-nitrophenyl)-5-phenyl-6-(4-(trifluoromethyl)phenyl)-3,4-dihydropyrimidin-2(1H)-one] | > 50 |
| CCOc1cc(C2NC(=O)NC(c3ccccc3F)=C2c2ccccc2)cc([N+](=O)[O-])c1O (stereo not drawn) [4-(3-ethoxy-4-hydroxy-5-nitrophenyl)-6-(2-fluorophenyl)-5-phenyl-3,4-dihydropyrimidin-2(1H)-one] | > 50 |
| CCOc1cc(C2NC(=O)NC(c3ccc(F)cc3)=C2c2ccccc2)cc([N+](=O)[O-])c1O (stereo not drawn) [4-(3-ethoxy-4-hydroxy-5-nitrophenyl)-6-(4-fluorophenyl)-5-phenyl-3,4-dihydropyrimidin-2(1H)-one] | > 50 |
| CCOc1cc(C2NC(=O)NC(c3ccccc3)=C2c2ccccc2C)cc([N+](=O)[O-])c1O (stereo not drawn) [4-(3-ethoxy-4-hydroxy-5-nitrophenyl)-6-phenyl-5-o-tolyl-3,4-dihydropyrimidin-2(1H)-one] | > 50 |
| CCOc1cc(C2NC(=O)NC(c3ccccc3)=C2c2ccc(C)cc2)cc([N+](=O)[O-])c1O (stereo not drawn) [4-(3-ethoxy-4-hydroxy-5-nitrophenyl)-6-phenyl-5-p-tolyl-3,4-dihydropyrimidin-2(1H)-one] | > 50 |
| CCOc1cc(C2NC(=O)NC(c3ccccc3)=C2c2ccccc2)cc(F)c1O (stereo not drawn) [4-(3-ethoxy-5-fluoro-4-hydroxyphenyl)-5,6-diphenyl-3,4-dihydropyrimidin-2(1H)-one] | > 50 |
| O=C1NC(c2ccccc2)=C(c2ccccc2)C(c2ccc(O)c([N+](=O)[O-])c2)N1 (stereo not drawn) [4-(4-hydroxy-3-nitrophenyl)-5,6-diphenyl-3,4-dihydropyrimidin-2(1H)-one] | > 50 |
| CCOc1cc(C2NC(=O)NC(c3ccccc3)=C2c2ccccc2Cl)cc([N+](=O)[O-])c1O (stereo not drawn) [5-(2-chlorophenyl)-4-(3-ethoxy-4-hydroxy-5-nitrophenyl)-6-phenyl-3,4-dihydropyrimidin-2(1H)-one] | > 50 |
| CCOc1cc(C2NC(=O)NC(c3ccccc3)=C2c2ccc(F)c(F)c2)cc([N+](=O)[O-])c1O (stereo not drawn) [5-(3,4-difluorophenyl)-4-(3-ethoxy-4-hydroxy-5-nitrophenyl)-6-phenyl-3,4-dihydropyrimidin-2(1H)-one] | > 50 |
| CCOc1cc(C2NC(=O)NC(c3ccccc3)=C2c2ccc(Cl)cc2)cc([N+](=O)[O-])c1O (stereo not drawn) [5-(4-chlorophenyl)-4-(3-ethoxy-4-hydroxy-5-nitrophenyl)-6-phenyl-3,4-dihydropyrimidin-2(1H)-one] | > 50 |
| CCOc1cc(C2NC(=O)NC(c3ccc(F)c(F)c3)=C2c2ccccc2)cc([N+](=O)[O-])c1O (stereo not drawn) [6-(3,4-difluorophenyl)-4-(3-ethoxy-4-hydroxy-5-nitrophenyl)-5-phenyl-3,4-dihydropyrimidin-2(1H)-one] | > 50 |
